Experimental data: patent US10064861B2, “Macrocyclic pyridazinone derivatives” (Merck Patent GmbH, priority 2013, dated 2018)
Like-named read-outs stand apart in the source and are kept apart here.

Columns and labels:
[1] = amide bond, DMF, 25.0 °C
[2] = tested on: TLR7 induced IL-6 secretion in human mononuclear cells (PBMC's); assay: TLR7 induced IL-6 in human PBMC's; type: cell-based; settings: TLR7 specific ligand 2 uM overnight, IL-6 AlphaLISA
Description: TLR7 Induced IL-6 in Human PBMC's
Human PBMC assay is used as one of the functional assay to monitor the activity of IRAK1 and IRAK4 small molecule inhibitors on TLR7 induced IL-6 secretion in human mononuclear cells (PBMC's). Human PBMCs are prepared from buffy coats (whole blood enriched with leukocytes and platelets) obtained from healthy volunteers used either fresh or frozen are plated in assay media (RPMI+2% P/S/L-glu+10% HI-FBS) and pre-treated with compounds in DMSO/media (range of concentrations from 25 μM to 0.4 nM) or controls (0.25% DMSO) for 30 minutes at 37° C. in assay media. Following pre-treatment with IRAK1 and IRAK4 inhibitors, PBMC's are stimulated with TLR7 specific ligand (2 uM) overnight (16-18 hrs) at 37° C. After incubation supernatant is transferred to 384 well PE AlphaPlate-384 (6005350) and IL-6 is quantified using Perkin Elmer IL-6 Alpha LISA kit (AL223C). Plates are read on an Envision® plate reader with Alpha Technology®.

[3] = target: IRAK1 (Homo sapiens (Human), UniProt P51617); assay: IRAK1 enzymatic assay; type: biochemical; settings: His-TEV-IRAK-1, ATP 1 μM, 3 hours at 30° C.
Sequence of IRAK1 (P51617 194-712): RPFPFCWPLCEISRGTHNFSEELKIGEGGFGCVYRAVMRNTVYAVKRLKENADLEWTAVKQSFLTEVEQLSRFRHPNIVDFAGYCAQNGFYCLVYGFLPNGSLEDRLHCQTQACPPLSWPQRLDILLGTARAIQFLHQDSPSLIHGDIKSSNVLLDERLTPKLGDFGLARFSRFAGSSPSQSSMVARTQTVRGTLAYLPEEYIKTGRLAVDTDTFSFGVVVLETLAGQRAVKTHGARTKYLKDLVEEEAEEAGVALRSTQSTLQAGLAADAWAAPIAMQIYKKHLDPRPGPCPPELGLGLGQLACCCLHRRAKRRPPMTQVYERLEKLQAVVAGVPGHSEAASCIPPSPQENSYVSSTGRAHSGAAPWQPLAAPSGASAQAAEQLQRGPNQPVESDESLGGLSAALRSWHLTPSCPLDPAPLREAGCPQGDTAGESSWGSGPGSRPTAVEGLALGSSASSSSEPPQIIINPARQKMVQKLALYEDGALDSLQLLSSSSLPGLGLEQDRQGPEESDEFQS
Description: IRAK1 is a human purified recombinant enzyme (His-TEV-IRAK1 (194-712)) In this assay, IRAK-1 hydrolyses ATP and autophosphorylates.
Measurement of IRAK-1 inhibition is performed in streptavidin coated 384 well FlashPlate (PerkinElmer #SMP410A).
His-TEV-IRAK-1 (15 ng/well), ATP (1 μM, [^33P]ATP 0.25 μCi/well) and compounds in DMSO (range of concentrations from 20 μM to 1 nM) or controls (2% DMSO) are incubated for 3 hours at 30° C. in assay buffer: Hepes pH 7.0 50 mM, Fatty acid-free BSA 0.1%, Dithiothreitol DTT 2 mM, MgCl2 10 mM, EGTA 0.5 mM, Triton-X-100 0.01%. Kinase reaction is stopped by addition of EDTA. Supernatant is discarded, plates are washed three times with 150 mM NaCl and radioactivity is then measured in a Microbeta Trilux reader.

[4] = target: IRAK4 (Homo sapiens (Human), UniProt Q9NWZ3); assay: IRAK4 enzymatic assay; type: biochemical; settings: His-TEV-IRAK4, ATP 2 μM, STK1-biotin peptide 300 nM, 3 hours at 30° C.
Sequence of IRAK4 (Q9NWZ3 whole entry): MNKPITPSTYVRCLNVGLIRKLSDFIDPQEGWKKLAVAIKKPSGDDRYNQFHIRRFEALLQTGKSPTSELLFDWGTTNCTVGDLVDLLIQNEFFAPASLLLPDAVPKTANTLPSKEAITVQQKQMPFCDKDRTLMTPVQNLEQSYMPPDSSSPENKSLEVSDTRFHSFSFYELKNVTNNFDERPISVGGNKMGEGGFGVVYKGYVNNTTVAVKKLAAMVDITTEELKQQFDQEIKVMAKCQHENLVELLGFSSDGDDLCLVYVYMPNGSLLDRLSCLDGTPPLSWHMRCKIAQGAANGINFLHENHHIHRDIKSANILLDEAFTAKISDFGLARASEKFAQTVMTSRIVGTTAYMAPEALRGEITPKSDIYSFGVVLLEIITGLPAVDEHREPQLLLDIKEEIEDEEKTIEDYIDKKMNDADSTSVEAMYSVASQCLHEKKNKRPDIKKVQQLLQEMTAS
Description: IRAK4 is a human purified recombinant enzyme (His-TEV-IRAK1 (194-712) IRAK4 hydrolyses ATP, autophosphorylates and phosphorylates a Serine/Threonine generic peptidic substrate (STK: 61ST1BLC from CisBio International based in Bagnols/Cèze FR).
Measurement of IRAK-4 inhibition is performed in streptavidin coated 384 well FlashPlate (PerkinElmer #SMP410A). His-TEV-IRAK4 (20 ng/well), ATP (2 μM, [^33P]ATP 0.25 μCi/well), STK1-biotin peptide (300 nM) and compounds in DMSO (range of concentrations from 20 μM to 1 nM) or controls (2% DMSO) are incubated for 3 hours at 30° C. in assay buffer: Hepes pH 7.0 50 mM, Fatty acid-free BSA 0.1%, Dithiothreitol DTT 2 mM, MgCl2 10 mM, EGTA 0.5 mM, Tween-20 0.01%, MnCl2 5 mM.
Kinase reaction is stopped by addition of EDTA. Supernatant is discarded, plates are washed three times with 150 mM NaCl and radioactivity is then measured in a Microbeta Trilux reader.

[5] = amide bond, DMF, 25.0 °C; remark: listed apart in the source

| IC50 [3] [nM] | IC50 [4] [nM] | SMILES | ring closure, isolated yield ([1]; from Nc1nc2ccccc2n1CC(O)C1CCCN(c2ccc(=O)n(Cc3cccc(C(=O)[O-])c3)n2)C1, 16-membered ring, HATU/HOAt/DMAP/DIEA, 1.27 mM) [%] | IC50 [2] [nM] | ring closure, yield of all isomers ([5]; from Nc1nc2ccccc2n1Cc1cccc(-c2ccc(=O)n(Cc3cccc(C(=O)O)c3)n2)c1, HBTU/HOBt/N-methylmorpholine, 10.0 mM, 15.0 h) [%] | ring closure, isolated yield ([1]; from Nc1nc2ccccc2n1Cc1cccc(-c2ccc(=O)n(Cc3cccc(C(=O)[O-])c3)n2)c1, 15-membered ring, HBTU/HOBt/NMM, 10.0 mM) [%] | ring closure, yield of all isomers ([5]; from Nc1nc2ccccc2n1CC(O)CCOc1ccc(=O)n(Cc2cccc(C(=O)O)c2)n1, HATU/HOAt/DMAP/DIPEA, 2.44 mM, 14.0 h) [%] | ring closure, isolated yield ([1]; from potassium 3-{3-[4-(2-Amino-benzoimidazol-1-yl)-3-hydroxy-butoxy]-6-oxo-6H-pyridazin-1-ylmethyl}-benzoic acetate, 16-membered ring, HATU/HOAt/DMAP/DIEA, 2.4 mM) [%] |
| --- | --- | --- | --- | --- | --- | --- | --- | --- |
| – | – | O=C1Nc2nc3ccccc3n2CC(O)C2CCCN(C2)c2ccc(=O)n(n2)Cc2cccc1c2 (centres unmarked) | 16 | – | – | – | – | – |
| < 100 | < 100 | O=C1Nc2nc3ccccc3n2C[C@H](O)[C@H]2CCCN(C2)c2ccc(=O)n(n2)Cc2cccc1c2 (stereo in doubt) [Compound 32b, 25-hydroxy-1,6,14,16,23,32-hexaazahexacyclo[24.3.1.1^2,6.1^8,12.0^15,23.0^17,22]dotriaconta-2(32),3,8(31),9,11,15,17(22),18,20-nonaene-5,13-dione] | – | 100 to 1000 | – | – | – | – |
| < 100 | < 100 | O=C1Nc2nc3ccccc3n2Cc2cccc(c2)-c2ccc(=O)n(n2)Cc2cccc1c2 [Compound 1, 8,15,17,25,29-pentaazahexacyclo[23.3.1.1^2,61^19,230^8,160^9,14]hentriaconta-1(29),2(31),3,5,9(14),10,12,15,19(30),20,22,27-dodecaene-18,26-dione] | – | 100 to 1000 | 26 | 26 | – | – |
| < 100 | < 100 | O=C1Nc2nc3ccccc3n2CCc2cccc(c2)-c2ccc(=O)n(n2)Cc2cccc1c2 [Compound 2, 6,14,16,23,32-pentaazahexacyclo[24.3.1.1^2,6.1^8,12.0^15,23.0^17,22]dotriaconta-1(30),2(32),3,8,10,12(31),15,17(22),18,20,26,28-dodecaene-5,13-dione] | – | 100 to 1000 | – | – | – | – |
| < 100 | < 100 | COc1cc2nc3n(c2cc1OC)Cc1cccc(c1)-c1ccc(=O)n(n1)Cc1cccc(c1)C(=O)N3 [Compound 5, 11,12-dimethoxy-8,15,17,25,29-pentaazahexacyclo[23.3.1.1^2,61^19,23.0^8,16.0^9,14]hentriaconta-1(29),2(31),3,5,9(14),10,12,15,19(30),20,22,27-dodecaene-18,26-dione] | – | < 100 | – | – | – | – |
| < 100 | < 100 | Cc1ccc2cc1-c1ccc(=O)n(n1)Cc1cccc(c1)C(=O)Nc1nc3ccccc3n1C2 [Compound 8, 3-Methyl-8,15,17,25,29-pentaazahexacyclo[23.3.1.1^2,61^19,230^8,160^9,14]hentriaconta-1(29),2(31),3,5,9(14),10,12,15,19(30),20,22,27-dodecaene-18,26-dione] | – | 100 to 1000 | – | – | – | – |
| < 100 | < 100 | O=C1Nc2nc3ccccc3n2Cc2ccc(O)c(c2)-c2ccc(=O)n(n2)Cc2cccc1c2 [Compound 12, 3-hydroxy-8,15,17,25,29-pentaazahexacyclo[23.3.1.1^2,6.1^19,23.0^8,16.0^9,14]hentriaconta-1(29),2(31),3,5,9(14),10,12,15,19(30),20,22,27-dodecaene-18,26-dione] | – | 1000 to 5000 | – | – | – | – |
| < 100 | < 100 | O=C1Nc2nc3ccccc3n2Cc2cc(ccn2)-c2ccc(=O)n(n2)Cc2cccc1c2 [Compound 16] | – | < 100 | – | – | – | – |
| < 100 | < 100 | O=C1Nc2nc3ccccc3n2CC(O)c2cccc(c2)-c2ccc(=O)n(n2)Cc2cccc1c2 (centres unmarked) [Compound 17] | – | < 100 | – | – | – | – |
| < 100 | < 100 | O=C1Nc2nc3ccccc3n2CC(O)CCOc2ccc(=O)n(n2)Cc2cccc1c2 (centres unmarked) [Compound 18, 20-hydroxy-23-oxa-1,9,11,18,28-pentaazapentacyclo[22.3.1.1^3,7.0^10,18.0^12,17]nonacosa-3,5,7(29),10,12(17),13,15,24(28),25-nonaene-8,27-dione] | – | 100 to 1000 | – | – | 7 | 7 |
| < 100 | < 100 | O=C1Nc2nc3ccccc3n2Cc2cc(ccc2O)-c2ccc(=O)n(n2)Cc2cccc1c2 [Compound 20, 5-hydroxy-8,15,17,25,29-pentaazahexacyclo[23.3.1.1^2,6.1^19,23.08,16.0^9,14]hentriaconta-1(29),2(31),3,5,9(14),10,12,15,19(30),20,22,27-dodecaene-18,26-dione] | – | < 100 | – | – | – | – |
| < 100 | < 100 | O=C(O)c1ccc2c(c1)nc1n2Cc2cccc(c2)-c2ccc(=O)n(n2)Cc2cccc(c2)C(=O)N1 [Compound 21] | – | 100 to 1000 | – | – | – | – |
| < 100 | < 100 | CC(=O)NCCc1ccc2c(c1)nc1n2Cc2cccc(c2)-c2ccc(=O)n(n2)Cc2cccc(c2)C(=O)N1 [Compound 25] | – | < 100 | – | – | – | – |
